Measured values taken from ChEMBL document CHEMBL4507258 (2021).

Legend:
[1] = target: Alpha-2C adrenergic receptor (Homo sapiens, UniProt P18825); assay: GPCRScan assay: inhibition of Alpha2C; parameters: radioligand conc. used [nm] 0.5 – 1.0, parental cells stable MDCK
[2] = target: Sigma non-opioid intracellular receptor 1 (Homo sapiens, UniProt Q99720); assay: GPCRScan assay: inhibition of Sigma 1; parameters: radioligand conc. used [nm] 4.0 – 5.0, parental cells HEKT
[3] = target: 5-hydroxytryptamine receptor 6 (Homo sapiens) (UniProt P50406); conditions: Compound concentration 10.0 uM
[4] = target: Alpha-2A adrenergic receptor (Homo sapiens) (UniProt P08913); conditions: Compound concentration 10.0 uM
[5] = target: Muscarinic acetylcholine receptor M1 (Homo sapiens) (UniProt P11229); conditions: Compound concentration 10.0 uM
[6] = target: Muscarinic acetylcholine receptor M5 (Homo sapiens) (UniProt P08912); conditions: Compound concentration 10.0 uM
[7] = target: T1, Histamine H1 receptor (Homo sapiens, UniProt P35367); assay: GPCRScan assay: inhibition of H1; parameters: radioligand conc. used [nm] 0.6 – 2.0, parental cells stable HEK
[8] = target: Adenosine receptor A1 (Homo sapiens) (UniProt P30542); assay: Adenosine A1 receptor (h) CEREP ligand profiling; conditions: Compound concentration 10.0 uM
[9] = target: Adenosine receptor A2a (Homo sapiens) (UniProt P29274); assay: Adenosine A 2A receptor (h) CEREP ligand profiling; conditions: Compound concentration 10.0 uM
[10] = target: Adrenergic receptor alpha-1 (Homo sapiens) (UniProt P35348+P25100+P35368); assay: alpha1-adrenoceptor (non-selective) CEREP ligand profiling; assay type: protein assay; conditions: Compound concentration 10.0 uM
[11] = target: GABA-A receptor; anion channel (Homo sapiens) (UniProt P14867+P47870+P18507+P28472+P48169+Q99928+Q9UN88+P34903+O00591+O14764+Q8N1C3+P18505+P78334+P47869+P31644+Q16445); assay: Benzodiazepine (central) CEREP ligand profiling; assay type: protein-complex assay; conditions: Compound concentration 10.0 uM
[12] = target: Translocator protein (Rattus norvegicus) (UniProt P16257); assay: Benzodiazepine (peripheral) CEREP ligand profiling; conditions: Compound concentration 10.0 uM
[13] = target: Bombesin receptor (Homo sapiens) (UniProt P28336+P32247+P30550); assay: Bombesin receptor CEREP ligand profiling; assay type: protein assay; conditions: Compound concentration 10.0 uM
[14] = target: Cannabinoid receptor 1 (Homo sapiens) (UniProt P21554); assay: Cannabinoid CB1 receptor (h) CEREP ligand profiling; conditions: Compound concentration 10.0 uM
[15] = target: D(1A) dopamine receptor (Homo sapiens) (UniProt P21728); assay: Dopamine D1 receptor (h) CEREP ligand profiling; conditions: Compound concentration 10.0 uM
[16] = target: D(3) dopamine receptor (Homo sapiens) (UniProt P35462); assay: Dopamine D3 receptor (h) CEREP ligand profiling; conditions: Compound concentration 10.0 uM
[17] = target: T2, D(4) dopamine receptor (Homo sapiens) (UniProt P21917); assay: Dopamine D4 receptor (h) CEREP ligand profiling; conditions: Compound concentration 10.0 uM
T2 sequence (whole entry): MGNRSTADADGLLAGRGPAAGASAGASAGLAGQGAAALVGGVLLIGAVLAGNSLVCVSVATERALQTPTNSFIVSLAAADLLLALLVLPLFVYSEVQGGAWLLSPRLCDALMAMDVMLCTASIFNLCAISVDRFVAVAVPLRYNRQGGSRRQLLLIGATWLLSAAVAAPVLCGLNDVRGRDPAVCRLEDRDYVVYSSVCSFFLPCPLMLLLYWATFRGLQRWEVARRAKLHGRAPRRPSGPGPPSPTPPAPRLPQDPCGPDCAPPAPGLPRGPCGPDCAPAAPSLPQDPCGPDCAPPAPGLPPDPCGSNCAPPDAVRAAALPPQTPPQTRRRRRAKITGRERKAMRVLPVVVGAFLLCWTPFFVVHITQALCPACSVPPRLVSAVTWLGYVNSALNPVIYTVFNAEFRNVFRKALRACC

[18] = target: Tumor necrosis factor (Homo sapiens) (UniProt P01375); assay: Tumor necrosis factor-alpha CEREP ligand profiling; conditions: Compound concentration 10.0 uM
[19] = target: T1, Histamine H1 receptor; assay: Histamine H1 receptor (central) CEREP ligand profiling; conditions: Compound concentration 10.0 uM
[20] = target: Histamine H2 receptor (Homo sapiens) (UniProt P25021); assay: Histamine H2 receptor CEREP ligand profiling; conditions: Compound concentration 10.0 uM
[21] = target: Melatonin receptor type 1A (Homo sapiens) (UniProt P48039); assay: Melatonin ML1 receptor CEREP ligand profiling; conditions: Compound concentration 10.0 uM
[22] = target: T3, Muscarinic acetylcholine receptor M2 (Homo sapiens) (UniProt P08172); assay: Muscarinic M2 receptors (h) CEREP ligand profiling; conditions: Compound concentration 10.0 uM
T3 sequence (whole entry): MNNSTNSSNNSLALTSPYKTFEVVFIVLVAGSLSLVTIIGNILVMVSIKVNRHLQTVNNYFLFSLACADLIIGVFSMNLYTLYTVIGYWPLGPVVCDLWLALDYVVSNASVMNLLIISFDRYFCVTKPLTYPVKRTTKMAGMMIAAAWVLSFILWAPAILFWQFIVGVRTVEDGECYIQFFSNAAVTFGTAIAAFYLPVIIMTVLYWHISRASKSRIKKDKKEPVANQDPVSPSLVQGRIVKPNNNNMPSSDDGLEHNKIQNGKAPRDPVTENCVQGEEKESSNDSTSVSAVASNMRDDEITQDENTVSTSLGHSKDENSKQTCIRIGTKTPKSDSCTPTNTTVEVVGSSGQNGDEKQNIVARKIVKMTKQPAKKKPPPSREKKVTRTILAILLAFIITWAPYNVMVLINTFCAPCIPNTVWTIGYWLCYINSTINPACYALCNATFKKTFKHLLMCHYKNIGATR

[23] = target: Muscarinic acetylcholine receptor M3 (Homo sapiens) (UniProt P20309); assay: Muscarinic M3 receptors (h) CEREP ligand profiling; conditions: Compound concentration 10.0 uM
[24] = target: Substance-K receptor (Homo sapiens) (UniProt P21452); assay: Neurokinin A receptor (h) CEREP ligand profiling; conditions: Compound concentration 10.0 uM
[25] = target: Neuropeptide Y receptor type 2 (Homo sapiens) (UniProt P49146); assay: Y2 receptor CEREP ligand profiling; conditions: Compound concentration 10.0 uM
[26] = target: Glutamate NMDA receptor (Rattus norvegicus) (UniProt P35439+Q00959+Q00960+Q00961+Q62645+Q8VHN2+Q9R1M7); assay: PCP receptor CEREP ligand profiling; assay type: protein-complex assay; conditions: Compound concentration 10.0 uM
[27] = target: P2Y receptor (Homo sapiens) (UniProt Q9H244+P51582+P47900+P41231+Q15391+Q15077+Q96G91+Q9BPV8); assay: P2Y-purinergic receptor CEREP ligand profiling; assay type: protein assay; conditions: Compound concentration 10.0 uM
[28] = target: Vasopressin V2 receptor (Homo sapiens) (UniProt P30518); assay: Vasopresine V2 receptor CEREP ligand profiling; conditions: Compound concentration 10.0 uM
[29] = target: Calcium-activated potassium channel (Homo sapiens) (UniProt Q92952+Q9UGI6+Q12791+O15554+Q9H2S1+A8MYU2); assay: K+ channel (Ca2+-dependent) CEREP ligand profiling; assay type: protein assay; conditions: Compound concentration 10.0 uM
[30] = target: GABA-A receptor; anion channel (Rattus norvegicus) (UniProt O09028+P15431+P18506+P18508+P19969+P20236+P23574+P23576+P28471+P28473+P30191+P62813+P63079+P63138+Q91ZM7+Q9ES14); conditions: Compound concentration 10.0 uM
[31] = target: Muscarinic acetylcholine receptor M4 (Homo sapiens) (UniProt P08173); conditions: Compound concentration 10.0 uM
Sequence of Muscarinic acetylcholine receptor M4 (Homo sapiens) (P08173 whole entry): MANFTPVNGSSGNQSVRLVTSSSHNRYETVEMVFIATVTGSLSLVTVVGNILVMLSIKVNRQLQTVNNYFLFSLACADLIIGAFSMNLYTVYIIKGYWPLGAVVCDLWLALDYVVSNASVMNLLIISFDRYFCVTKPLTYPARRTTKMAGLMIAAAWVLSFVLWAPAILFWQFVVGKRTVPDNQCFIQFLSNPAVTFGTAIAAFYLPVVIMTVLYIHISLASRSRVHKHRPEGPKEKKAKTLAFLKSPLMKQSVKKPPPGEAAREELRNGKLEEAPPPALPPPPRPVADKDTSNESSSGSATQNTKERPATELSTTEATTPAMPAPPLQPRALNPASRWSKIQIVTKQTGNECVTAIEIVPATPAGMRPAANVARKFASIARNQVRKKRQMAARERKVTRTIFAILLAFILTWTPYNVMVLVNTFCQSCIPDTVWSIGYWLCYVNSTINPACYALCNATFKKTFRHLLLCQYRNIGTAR

T1 sequence (P35367 whole entry): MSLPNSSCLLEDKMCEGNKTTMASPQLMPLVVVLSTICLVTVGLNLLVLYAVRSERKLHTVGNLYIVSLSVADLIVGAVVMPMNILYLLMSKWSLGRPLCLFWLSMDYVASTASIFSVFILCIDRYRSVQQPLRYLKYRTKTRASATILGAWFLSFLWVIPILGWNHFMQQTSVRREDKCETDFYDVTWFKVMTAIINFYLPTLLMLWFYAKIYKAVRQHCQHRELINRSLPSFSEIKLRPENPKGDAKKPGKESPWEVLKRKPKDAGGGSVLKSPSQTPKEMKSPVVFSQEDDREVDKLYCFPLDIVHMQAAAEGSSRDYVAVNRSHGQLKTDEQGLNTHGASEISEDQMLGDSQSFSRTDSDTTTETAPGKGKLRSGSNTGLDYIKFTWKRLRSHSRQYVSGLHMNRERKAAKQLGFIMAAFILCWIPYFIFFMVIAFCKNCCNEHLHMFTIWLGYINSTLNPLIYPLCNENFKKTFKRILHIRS
Sequence of D(3) dopamine receptor (Homo sapiens) (P35462 whole entry): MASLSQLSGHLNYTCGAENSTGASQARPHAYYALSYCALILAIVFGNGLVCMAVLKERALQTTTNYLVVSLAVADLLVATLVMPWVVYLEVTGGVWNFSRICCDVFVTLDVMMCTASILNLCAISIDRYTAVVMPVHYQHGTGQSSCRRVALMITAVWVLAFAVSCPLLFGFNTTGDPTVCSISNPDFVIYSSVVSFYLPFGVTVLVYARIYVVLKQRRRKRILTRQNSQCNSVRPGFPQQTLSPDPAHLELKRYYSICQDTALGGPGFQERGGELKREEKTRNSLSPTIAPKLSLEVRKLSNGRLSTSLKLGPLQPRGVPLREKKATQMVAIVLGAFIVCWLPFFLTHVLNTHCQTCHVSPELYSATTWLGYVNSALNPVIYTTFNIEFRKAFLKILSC
Sequence of Histamine H2 receptor (Homo sapiens) (P25021 whole entry): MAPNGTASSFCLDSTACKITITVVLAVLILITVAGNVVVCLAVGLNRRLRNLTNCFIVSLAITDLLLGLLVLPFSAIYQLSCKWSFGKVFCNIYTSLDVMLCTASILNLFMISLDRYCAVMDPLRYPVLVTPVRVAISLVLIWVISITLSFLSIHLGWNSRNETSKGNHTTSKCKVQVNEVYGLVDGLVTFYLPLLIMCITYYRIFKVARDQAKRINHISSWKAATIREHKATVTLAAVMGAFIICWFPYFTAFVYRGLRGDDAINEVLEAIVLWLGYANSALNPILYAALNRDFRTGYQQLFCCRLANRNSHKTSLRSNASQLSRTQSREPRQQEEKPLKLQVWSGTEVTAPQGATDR
Sequence of 5-hydroxytryptamine receptor 6 (Homo sapiens) (P50406 whole entry): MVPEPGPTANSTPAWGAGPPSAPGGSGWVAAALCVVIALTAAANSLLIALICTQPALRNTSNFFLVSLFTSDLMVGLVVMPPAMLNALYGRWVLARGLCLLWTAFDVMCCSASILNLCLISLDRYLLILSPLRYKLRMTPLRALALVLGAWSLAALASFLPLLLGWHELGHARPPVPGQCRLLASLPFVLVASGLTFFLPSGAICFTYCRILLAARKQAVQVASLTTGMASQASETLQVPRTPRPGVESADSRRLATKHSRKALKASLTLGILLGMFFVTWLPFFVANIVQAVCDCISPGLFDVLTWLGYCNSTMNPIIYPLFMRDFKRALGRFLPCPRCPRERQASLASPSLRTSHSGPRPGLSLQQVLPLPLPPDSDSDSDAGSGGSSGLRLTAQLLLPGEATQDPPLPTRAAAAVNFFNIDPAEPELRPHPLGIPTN
Sequence of Muscarinic acetylcholine receptor M3 (Homo sapiens) (P20309 whole entry, looked up): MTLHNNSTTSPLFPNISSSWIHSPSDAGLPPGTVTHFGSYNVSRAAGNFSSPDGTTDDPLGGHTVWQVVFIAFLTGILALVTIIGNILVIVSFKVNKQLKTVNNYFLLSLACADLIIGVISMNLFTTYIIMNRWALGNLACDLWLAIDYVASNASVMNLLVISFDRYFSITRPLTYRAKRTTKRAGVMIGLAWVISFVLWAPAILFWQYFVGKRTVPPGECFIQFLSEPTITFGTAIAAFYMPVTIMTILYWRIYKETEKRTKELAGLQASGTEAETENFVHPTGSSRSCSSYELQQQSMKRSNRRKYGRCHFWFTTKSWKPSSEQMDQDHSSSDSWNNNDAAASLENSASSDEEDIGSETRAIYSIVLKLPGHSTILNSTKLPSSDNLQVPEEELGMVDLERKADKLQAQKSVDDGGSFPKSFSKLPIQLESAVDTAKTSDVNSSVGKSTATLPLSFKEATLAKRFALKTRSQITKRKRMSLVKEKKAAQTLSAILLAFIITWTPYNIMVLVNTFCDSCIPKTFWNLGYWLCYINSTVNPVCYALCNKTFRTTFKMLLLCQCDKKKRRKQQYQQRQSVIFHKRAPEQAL
Sequence of Adenosine receptor A1 (Homo sapiens) (P30542 whole entry): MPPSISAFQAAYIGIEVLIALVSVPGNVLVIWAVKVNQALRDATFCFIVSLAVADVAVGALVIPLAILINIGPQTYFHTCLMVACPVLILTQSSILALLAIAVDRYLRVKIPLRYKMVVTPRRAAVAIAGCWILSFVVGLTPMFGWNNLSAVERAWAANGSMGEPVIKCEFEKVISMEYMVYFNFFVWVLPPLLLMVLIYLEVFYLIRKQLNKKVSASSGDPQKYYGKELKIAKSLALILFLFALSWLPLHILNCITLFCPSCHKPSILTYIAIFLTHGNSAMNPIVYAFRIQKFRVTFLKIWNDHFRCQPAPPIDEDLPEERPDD
Sequence of D(1A) dopamine receptor (Homo sapiens) (P21728 whole entry): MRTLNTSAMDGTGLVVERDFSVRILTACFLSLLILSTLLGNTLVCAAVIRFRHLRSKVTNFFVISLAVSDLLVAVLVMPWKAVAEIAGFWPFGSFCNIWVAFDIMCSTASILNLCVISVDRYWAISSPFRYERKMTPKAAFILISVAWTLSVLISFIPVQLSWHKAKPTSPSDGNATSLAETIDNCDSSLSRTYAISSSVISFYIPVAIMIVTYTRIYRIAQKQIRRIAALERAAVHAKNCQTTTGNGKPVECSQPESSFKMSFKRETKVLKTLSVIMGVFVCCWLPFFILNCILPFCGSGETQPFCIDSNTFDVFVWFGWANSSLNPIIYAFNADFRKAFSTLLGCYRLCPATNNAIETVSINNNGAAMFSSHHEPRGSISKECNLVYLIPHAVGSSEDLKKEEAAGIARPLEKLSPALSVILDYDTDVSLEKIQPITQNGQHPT
Sequence of Adenosine receptor A2a (Homo sapiens) (P29274 whole entry): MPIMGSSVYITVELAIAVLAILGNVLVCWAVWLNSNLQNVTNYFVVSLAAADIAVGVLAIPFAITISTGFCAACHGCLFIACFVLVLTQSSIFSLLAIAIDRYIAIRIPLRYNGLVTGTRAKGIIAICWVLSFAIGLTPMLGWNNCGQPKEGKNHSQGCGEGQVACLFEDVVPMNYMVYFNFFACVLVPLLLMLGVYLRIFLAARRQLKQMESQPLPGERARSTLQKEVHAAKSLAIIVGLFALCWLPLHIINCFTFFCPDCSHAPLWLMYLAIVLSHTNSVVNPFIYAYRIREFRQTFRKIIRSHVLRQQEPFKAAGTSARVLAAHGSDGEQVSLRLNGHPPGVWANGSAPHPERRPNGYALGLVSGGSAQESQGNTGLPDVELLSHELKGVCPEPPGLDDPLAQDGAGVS
Sequence of Melatonin receptor type 1A (Homo sapiens) (P48039 whole entry): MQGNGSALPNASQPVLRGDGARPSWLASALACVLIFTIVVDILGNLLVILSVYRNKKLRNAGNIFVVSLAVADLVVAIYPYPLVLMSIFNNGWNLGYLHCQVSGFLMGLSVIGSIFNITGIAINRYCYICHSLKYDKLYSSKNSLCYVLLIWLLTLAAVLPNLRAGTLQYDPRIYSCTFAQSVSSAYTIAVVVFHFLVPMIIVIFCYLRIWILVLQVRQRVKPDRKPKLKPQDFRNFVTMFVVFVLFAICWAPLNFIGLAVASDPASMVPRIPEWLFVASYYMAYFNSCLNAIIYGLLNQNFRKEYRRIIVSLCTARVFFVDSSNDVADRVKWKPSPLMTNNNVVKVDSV
Sequence of Sigma non-opioid intracellular receptor 1 (Q99720 whole entry): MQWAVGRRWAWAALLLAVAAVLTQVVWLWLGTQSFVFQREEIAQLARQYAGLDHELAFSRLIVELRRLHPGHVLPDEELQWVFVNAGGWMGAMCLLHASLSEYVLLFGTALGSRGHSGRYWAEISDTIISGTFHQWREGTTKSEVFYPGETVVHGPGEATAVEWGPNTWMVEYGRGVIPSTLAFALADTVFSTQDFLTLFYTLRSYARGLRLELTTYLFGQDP
Sequence of Substance-K receptor (Homo sapiens) (P21452 whole entry): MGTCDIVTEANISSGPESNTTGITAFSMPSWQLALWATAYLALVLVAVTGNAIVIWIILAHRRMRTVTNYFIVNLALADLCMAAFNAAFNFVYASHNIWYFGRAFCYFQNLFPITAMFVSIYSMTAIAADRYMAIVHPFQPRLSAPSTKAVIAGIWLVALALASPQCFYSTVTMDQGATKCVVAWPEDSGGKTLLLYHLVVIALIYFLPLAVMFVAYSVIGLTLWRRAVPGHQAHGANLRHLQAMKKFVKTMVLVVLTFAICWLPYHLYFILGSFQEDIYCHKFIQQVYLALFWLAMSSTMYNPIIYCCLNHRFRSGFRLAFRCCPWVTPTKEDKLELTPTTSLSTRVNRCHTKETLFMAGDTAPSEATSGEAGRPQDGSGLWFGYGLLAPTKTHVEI

SMILES: CCCCN(CCCC)C(=O)CN1C[C@@H](c2cc(OC)c3c(c2)OCO3)[C@H](C(=O)O)[C@H]1CC(C)(C)CCC [A-545]
- Ki [1]: 5.77 µM
- Ki [2]: 0.298 µM
- inhibition [3]: 33.5%
- inhibition [4]: 19.1%
- inhibition [5]: 12.4%
- inhibition [6]: 1.1%

SMILES: CCCCN(CCCC)C(=O)CN1C[C@H](c2cc(OC)c3c(c2)OCO3)[C@@H](C(=O)O)[C@@H]1CC(C)(C)CCC [ABT-546]
- Ki [7]: 10 µM
- inhibition [8]: 23%
- inhibition [9]: < 10%
- inhibition [10]: < 10%
- inhibition [11]: < 10%
- inhibition [12]: < 10%
- inhibition [13]: < 10%
- inhibition [14]: < 10%
- inhibition [15]: 14%
- inhibition [16]: < 10%
- inhibition [17]: < 10%
- inhibition [18]: < 10%
- inhibition [19]: < 10%
- inhibition [20]: < 10%
- inhibition [21]: 12%
- inhibition [22]: < 10%
- inhibition [23]: < 10%
- inhibition [24]: < 10%
- inhibition [25]: < 10%
- inhibition [26]: < 10%
- inhibition [27]: < 10%
- inhibition [28]: < 10%
- inhibition [29]: < 10%
- inhibition [30]: -5.72%
- inhibition [31]: 8.5%
